Reference: patent US3963707A, “Novel N-nitroso compounds, compositions containing such compounds, processes for their preparation and methods of treatment therewith, and novel intermediates” (Aktiebolaget Leo, priority 1973, dated 1976)
Read-outs that look alike come from different tables or passages of the source.

Tests used:
[1] = Ehrlich ascites tumour test (LD50, ED50, therapeutic index); format: in vivo, SPF NMRI mice; conditions: mouse, in vivo, ip; one injection i.p., mice; dose causing 50 percent lethality
Source text: (§1) The high activity against tumours is further illustrated in these experiments by comparisons with known antitumour agents used in the therapy. The therapeutic indexes (T.I.), i.e. the ratios LD50/ED50, are in all comparisons much more favourable with the compounds of the present invention.
(§2) LD50 is the dose that caused a 50 percent lethality of the animals, ED50 is the dose that caused a 50 percent reduction of tumour size.
(§3) The experimental design and the interpretation of the results have been in accordance with the standards set by the CCNSC (Cancer Chemotherapy Reports, January 1959 and December 1962), and by the DR&D (Cancer Chemotherapy Reports, September 1972, Vol. 3, No. 2).
(§4) The way of administration is by the intraperitoneal route (i.p.) in each case.
(§5) Ehrlich ascites tumour, ELD hyperdiploid (46 chromosomes)
(§6) Experimental animals: SPF NMRI mice.
(§7) Tumour implant: 2 × 10^6 tumour cells i.p.
(§8) Therapy: One injection i.p. on the day following implantation.
(§9) Termination: The animals are killed on the 8th day.
(§10) Evaluation: Weights of tumours of test animals compared with those of control animals.

in vivo = experiment: in vivo; set-up: species or system SPF Wistar rats; conditions: rat, in vivo, ip; one injection i.p., rats; dose causing 50 percent lethality
Method in brief: (§11)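 Therapeutic index (LD50/ED50) was derived from tumour weight against controls at day-8 sacrifice, with ED50 the dose giving 50% tumour reduction. Rats (SPF Wistar) bore 5 × 10^6 hepatoma cells implanted intraperitoneally. A single i.p. injection followed on the day after implantation.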

Hepatoma AH 130 = experiment: in vivo; set-up: species or system SPF Wistar rats; conditions: for T.I. (LD50/ED50): Hepatoma AH 130, rats, i.p.; for ED50: Rattus norvegicus, ip, 192 h, one injection i.p. day after implantation, dose causing 50 percent reduction of tumour size
Method in brief: as §11

[2] = test system: Walker carcinosarcoma 256; experiment: Walker carcinosarcoma 256 test; format: in vivo, Sprague Dawley rats; conditions: for Lethality: died/used animals
Source text: as §3, §4
Walker carcinosarcoma 256
Experimental animals: Sprague Dawley rats.
Tumour implant: Tumour pieces with 2-4 mm diameter, subcutaneously.
Therapy: Daily injections i.p. for 5 days starting on the day following implantation.
Termination: The animals are killed on the 9th day.
Evaluation: Weights of tumours of test animals are compared with those of control animals. The differences, in per cent of weights of tumours of control animals, give per cent tumour inhibition.
The lethality is given as the number of animals which died in the experiment/the number of animals used in the experiments.

[3] = test system: Ehrlich ascites tumour, ELD hyperdiploid (46 chromosomes); experiment: Ehrlich ascites tumour test (LD50, ED50, therapeutic index); format: in vivo, SPF NMRI mice; conditions: for anti-tumor activity: additional compounds, result in words; for T.I. (LD50/ED50): Ehrlich ascites, mice, i.p.; for ED50: Mus musculus, Ehrlich, ip
Source text: as §1, §2, §3, §4, §5, §6, §7, §8, §9, §10

[4] = test system: Lymphatic leukemia L 1210; experiment: Lymphatic leukemia L 1210 test; format: in vivo, CDF1 (C3H×DBA/2)F1 mice; conditions: for Effect %: survival time as percentage of control; for Weight change v: vs control up to the 5th day; for effect on L 1210: result in words, dose not given
Source text: as §3, §4
Lymphatic leukemia L 1210
Experimental animals: CDF1 (C3H×DBA/2)F1 mice.
Tumour implant: 10^5 tumour cells i.p.
as §8
Evaluation: a) The survival time of the test animals (t) expressed as the percentage of that of control animals (c).
b. Weight change in the test animals (T) compared with that of the control animals (c) up to the 5th day.
c. The mortality rate must not exceed 35% in the test animals on the 5th day of therapy.

SMILES | LD50 (in vivo) | T.I. (LD50/ED50) (Hepatoma AH 130) | ED50 (Hepatoma AH 130) | anti-tumor activity [3] | also measured
O=C(O)CCCc1ccc(N(CCCl)CCCl)cc1 [Chlorambucil, reference compound] | – | – | – | – | LD50 [1]: 33 mg/kg
C[C@]12CC[C@@H](OC(=O)N(CCCl)N=O)C[C@@H]1CC[C@@H]1[C@@H]2CC[C@]2(C)C(=O)CC[C@@H]12 [androsterone-3α-N-(2-chloroethyl)-N-nitroso carbamate] | > 1000 mg/kg | > 100 | 10 mg/kg | exhibit anti-tumor activity | Tumour inhibition % ([2]; 5×250 mg/kg i.p.): 82%; Lethality ([2]; 5×250 mg/kg i.p.): 0/8; Mortality ([4]; 1×125 mg/kg i.p.): 0/20; Effect % ([4]; 1×125 mg/kg i.p.): 153%; Weight change v ([4]; 1×125 mg/kg i.p.): -2.4 g
C[C@]12CC[C@H](OC(=O)N(CCCCl)N=O)CC1=CC[C@@H]1[C@@H]2CC[C@]2(C)C(=O)CC[C@@H]12 [dehydroepiandrosterone-3β-N-(3-chloropropyl)-N-nitroso carbamate] | > 1000 mg/kg | > 2.7 | 375 mg/kg | exhibit anti-tumor activity | Tumour inhibition % ([2]; 5×500 mg/kg i.p.): 24%; Lethality ([2]; 5×500 mg/kg i.p.): 0/8
COc1ccc2c(c1)CC[C@@H]1[C@@H]2CC[C@]2(C)[C@@H](OC(=O)N(CCCl)N=O)CC[C@@H]12 [estradiol-3-methylether-17β-N-(2-chloroethyl)-N-nitroso carbamate] | > 1000 mg/kg | > 2.000 | 0.5 mg/kg | exhibit anti-tumor activity | Tumour inhibition % ([2]; 5×250 mg/kg i.p.): 66%; Lethality ([2]; 5×250 mg/kg i.p.): 0/8
CC(=O)O[C@H]1CC[C@@]2(C)C(=CC[C@H]3[C@@H]4CC[C@H](OC(=O)N(CCCl)N=O)[C@@]4(C)CC[C@@H]32)C1 [androstenediol-3β-acetate-17β-N-(2-chloroethyl)-N-nitroso carbamate] | > 250 mg/kg | – | 0.25 mg/kg | exhibit anti-tumor activity | Tumour inhibition % ([2]; 5×125 mg/kg i.p.): 41%; Lethality ([2]; 5×125 mg/kg i.p.): 0/8
C[C@]12CC[C@@H]3c4ccc(OC(=O)N(CCCl)N=O)cc4CC[C@H]3[C@@H]1CCC2=O [estrone-3-N-(2-chloroethyl)-N-nitroso carbamate] | > 1000 mg/kg | > 2.000 | 0.5 mg/kg | exhibit anti-tumor activity | Tumour inhibition % ([2]; 5×125 mg/kg i.p.): 75%; Lethality ([2]; 5×125 mg/kg i.p.): 0/8; effect on L 1210 [4]: show a significant effect
C1CN1c1nc(N2CC2)nc(N2CC2)n1 [Triethylene-melamine, reference compound] | – | – | – | – | LD50 [1]: 2.7 mg/kg; T.I. (LD50/ED50) [3]: 2.6; ED50 ([3]; one injection i.p. day after implantation, dose causing 50 percent reduction of tumour size, read-out: ED50): 1.03 mg/kg
O=P1(N(CCCl)CCCl)NCCCO1 (centres unmarked) [Cyclofosfamid, reference compound] | – | – | – | – | LD50 [1]: 470 mg/kg; T.I. (LD50/ED50) [3]: 7.6; ED50 [3]: 62 mg/kg
CC(=O)O[C@H]1CC[C@H]2[C@@H]3CCc4cc(OC(=O)N(CCCl)N=O)ccc4[C@H]3CC[C@]12C [estradiol-17β-acetate-3-N-(2-chloroethyl)-N-nitroso carbamate] | > 1000 mg/kg | > 4.000 | < 0.25 mg/kg | exhibit anti-tumor activity | Tumour inhibition % ([2]; 5×125 mg/kg i.p.): 69%; Lethality ([2]; 5×125 mg/kg i.p.): 1/8
CC(C)CCC[C@@H](C)[C@H]1CC[C@H]2[C@@H]3CC=C4C[C@@H](OC(=O)N(CCCl)N=O)CC[C@]4(C)[C@H]3CC[C@]12C [cholesterol-3β-N-(2-chloroethyl)-N-nitroso carbamate] | > 1000 mg/kg | > 5 | 200 mg/kg | exhibit anti-tumor activity | Tumour inhibition % ([2]; 5×500 mg/kg i.p.): 39%; Lethality ([2]; 5×500 mg/kg i.p.): 0/8
C[C@]12CC[C@@H]3c4ccc(OC(=O)N(CCCl)N=O)cc4CC[C@H]3[C@@H]1CC[C@@H]2O [17β-estradiol-3-N-(2-chloroethyl)-N-nitroso carbamate] | > 1000 mg/kg | > 4.000 | < 0.25 mg/kg | exhibit anti-tumor activity | Tumour inhibition % ([2]; 5×31 mg/kg i.p.): 86%; Lethality ([2]; 5×31 mg/kg i.p.): 0/8
CC(=O)[C@H]1CC[C@H]2[C@@H]3CC=C4C[C@@H](OC(=O)N(CCCl)N=O)CC[C@]4(C)[C@H]3CC[C@]12C [pregnenolone-3β-N-(2-chloroethyl)-N-nitroso carbamate] | > 1000 mg/kg | > 526 | 1.9 mg/kg | exhibit anti-tumor activity | Tumour inhibition % ([2]; 5×500 mg/kg i.p.): 55%; Lethality ([2]; 5×500 mg/kg i.p.): 0/8; Mortality ([4]; 1×500 mg/kg i.p.): 0/20; Effect % ([4]; 1×500 mg/kg i.p.): 136%; Weight change v ([4]; 1×500 mg/kg i.p.): -0.8 g
C[C@]12CC[C@H](OC(=O)N(CCBr)N=O)CC1=CC[C@@H]1[C@@H]2CC[C@]2(C)C(=O)CC[C@@H]12 [dehydroepiandrosterone-3β-N-(2-bromoethyl)-N-nitroso carbamate] | > 1000 mg/kg | > 14 | 70 mg/kg | exhibit anti-tumor activity | Tumour inhibition % ([2]; 5×250 mg/kg i.p.): 61%; Lethality ([2]; 5×250 mg/kg i.p.): 0/8
C[C@]12CC[C@H](OC(=O)N(CCCl)N=O)C[C@@H]1CC[C@@H]1[C@@H]2CC[C@]2(C)C(=O)CC[C@@H]12 [epiandrosterone-3β-N-(2-chloroethyl)-N-nitroso carbamate] | > 1000 mg/kg | > 5.000 | 0.2 mg/kg | exhibit anti-tumor activity | Tumour inhibition % ([2]; 5×125 mg/kg i.p.): 47%; Lethality ([2]; 5×125 mg/kg i.p.): 0/8; Mortality ([4]; 1×250 mg/kg i.p.): 0/20; Effect % ([4]; 1×250 mg/kg i.p.): 130%; Weight change v ([4]; 1×250 mg/kg i.p.): -1.6 g
CC(=O)O[C@H]1CC[C@H]2[C@@H]3CC=C4C[C@@H](OC(=O)N(CCCl)N=O)CC[C@]4(C)[C@H]3CC[C@]12C [androstenediol-17β-acetate-3β-N-(2-chloroethyl)-N-nitroso carbamate] | > 250 mg/kg | – | 0.25 mg/kg | exhibit anti-tumor activity | Tumour inhibition % ([2]; 5×125 mg/kg i.p.): 59%; Lethality ([2]; 5×125 mg/kg i.p.): 0/8
C[C@]12CCC(=O)C[C@@H]1CC[C@@H]1[C@@H]2CC[C@]2(C)[C@@H](OC(=O)N(CCCl)N=O)CC[C@@H]12 [dihydrotestosterone-17β-N-(2-chloroethyl)-N-nitroso carbamate] | > 1000 mg/kg | – | 1 mg/kg | exhibit anti-tumor activity | Tumour inhibition % ([2]; 5×250 mg/kg i.p.): 51%; Lethality ([2]; 5×250 mg/kg i.p.): 0/8; Mortality ([4]; 1×125 mg/kg i.p.): 0/20; Effect % ([4]; 1×125 mg/kg i.p.): 135%; Weight change v ([4]; 1×125 mg/kg i.p.): -0.9 g
C[C@]12CC[C@@H](OC(=O)N(CCCl)N=O)C[C@@H]1CC[C@@H]1[C@@H]2CC[C@]2(C)[C@@H](OC(=O)N(CCCl)N=O)CC[C@@H]12 [androstanediol-3α,17β-bis/N-(2-chloroethyl)-N-nitroso carbamate/] | > 1000 mg/kg | – | 1 mg/kg | exhibit anti-tumor activity | Tumour inhibition % ([2]; 5×250 mg/kg i.p.): 75%; Lethality ([2]; 5×250 mg/kg i.p.): 1/8; effect on L 1210 [4]: show a significant effect
C[C@]12CC[C@H]3[C@@H](CCC4=CC(=O)CC[C@@H]43)[C@@H]1CC[C@@H]2OC(=O)N(CCCl)N=O [19-nortestosterone-17β-N-(2-chloroethyl)-N-nitroso carbamate] | 150 mg/kg | 300 | 0.5 mg/kg | exhibit anti-tumor activity | Tumour inhibition % ([2]; 5×63 mg/kg i.p.): 65%; Lethality ([2]; 5×63 mg/kg i.p.): 1/8; Mortality ([4]; 1×31 mg/kg i.p.): 0/40; Effect % ([4]; 1×31 mg/kg i.p.): 142%; Weight change v ([4]; 1×31 mg/kg i.p.): -1.0 g
